Measurements reported in ChEMBL document CHEMBL2046274, “Pyrazolo[4,3-c][1,2]benzothiazines 5,5-dioxide: a promising new class of Staphylococcus aureus NorA efflux pump inhibitors” (J Med Chem, 2012).
In brackets after ≈: the same amount, converted by molar mass. Activity calls are given as the source filed them. The calls are words filed in the database; no cut-off is given here.

Experiments:
[1] = target: T1, Quinolone resistance protein NorA (Staphylococcus aureus) (UniProt P0A0J7); experiment: Inhibition of norA-mediated EtBr efflux in Staphylococcus aureus SA1199B overexpressing norA and expressing A116E GrlA mutation at 50 uM by fluorometry
T1 sequence (whole entry): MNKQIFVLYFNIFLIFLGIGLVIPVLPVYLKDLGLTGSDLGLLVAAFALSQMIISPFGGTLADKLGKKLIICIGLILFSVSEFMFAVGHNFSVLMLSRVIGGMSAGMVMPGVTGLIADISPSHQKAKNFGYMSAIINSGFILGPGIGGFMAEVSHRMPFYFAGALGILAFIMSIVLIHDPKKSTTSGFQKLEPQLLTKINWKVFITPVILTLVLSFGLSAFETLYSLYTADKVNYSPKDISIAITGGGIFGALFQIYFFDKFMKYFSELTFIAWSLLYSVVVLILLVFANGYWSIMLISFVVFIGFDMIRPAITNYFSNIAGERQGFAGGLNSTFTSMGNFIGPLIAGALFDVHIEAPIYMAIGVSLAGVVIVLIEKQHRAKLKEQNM

[2] = system: Staphylococcus aureus; experiment: Antibacterial activity against Staphylococcus aureus SAK2378 overexpressing norA by microdilution method; type: functional
[3] = system: Staphylococcus aureus; experiment: Antibacterial activity against Staphylococcus aureus SA1199B overexpressing norA and expressing A116E GrlA mutation by microdilution method; type: functional
[4] = system: Staphylococcus aureus; experiment: Antibacterial activity against norA-deficient Staphylococcus aureus SAK1902 by microdilution method; type: functional
[5] = system: Staphylococcus aureus; experiment: Antibacterial activity against wild type Staphylococcus aureus SA1199 expressing norA by microdilution method; type: functional
[6] = target: T1, Quinolone resistance protein NorA (Staphylococcus aureus); experiment: Inhibition of norA overexpressed in Staphylococcus aureus SA1199B coexpressing A116E GrlA mutation assessed as potentiation of ciprofloxacin MIC by checkerboard assay
[7] = target: T1, Quinolone resistance protein NorA (Staphylococcus aureus); experiment: Inhibition of norA in wild type Staphylococcus aureus SA1199 expressing assessed as potentiation of ciprofloxacin MIC by checkerboard assay
[8] = target: Quinolone resistance protein NorA (Staphylococcus aureus, UniProt P0A0J7, A116E); experiment: Inhibition of norA-mediated EtBr efflux in Staphylococcus aureus SA1199B overexpressing norA and expressing A116E GrlA mutation by fluorometry
[9] = target: T1, Quinolone resistance protein NorA (Staphylococcus aureus); experiment: Inhibition of norA overexpressed in Staphylococcus aureus SA1199B coexpressing A116E GrlA mutation potentiation of EtBr MIC at >6.25 ug/mL by checkerboard assay
[10] = target: T1, Quinolone resistance protein NorA (Staphylococcus aureus); experiment: Inhibition of norA overexpressed in Staphylococcus aureus SAK2378 assessed as potentiation of CPX MIC by checkerboard assay
[11] = target: T1, Quinolone resistance protein NorA (Staphylococcus aureus); experiment: Inhibition of norA overexpressed in Staphylococcus aureus SA1199B coexpressing A116E GrlA mutation assessed as fold reduction in ciprofloxacin MIC at >12.5 ug/mL by checkerboard assay
[12] = Cytotoxicity against human HepG2 cells after 24 hrs by LDH release assay; type: cell-based
[13] = target: T1, Quinolone resistance protein NorA (Staphylococcus aureus); experiment: Inhibition of norA in Staphylococcus aureus SA1199B overexpressing norA and expressing A116E GrlA mutation assessed as fold reduction in ciprofloxacin MIC at >6.25 ug/mL by checkerboard assay
[14] = system: Staphylococcus aureus; experiment: Potentiation of CPX MIC against norA-deficient Staphylococcus aureus SAK1902 by checkerboard assay; type: functional, organism-based

Structure (SMILES) | inhibition [1] [%] | MIC [2] [µg/mL] | MIC [3] [µg/mL] | MIC [4] [µg/mL] | MIC [5] [µg/mL] | inhibition [6] | inhibition [7] | also measured
CN1c2c(-c3ccc(Cl)cc3)nn(-c3cccc(C(F)(F)F)c3)c2-c2ccccc2S1(=O)=O | 0 | – | – | – | – | – | – | –
O=S1(=O)Nc2c(-c3ccc(Cl)cc3)nn(-c3cccc(F)c3)c2-c2ccccc21 | 33.9 | – | – | – | – | – | – | –
O=C(O)c1cn(C2CC2)c2cc(N3CCNCC3)c(F)cc2c1=O [CIPROFLOXACIN] | – | 2.5 (≈ 7.54 µM) | 10 (≈ 30.2 µM) | 0.31 (≈ 0.936 µM) | 0.63 (≈ 1.9 µM) | – | – | –
CS(=O)(=O)Nc1ccc(-n2nc(-c3ccc(Cl)cc3)c3c2-c2ccccc2S(=O)(=O)N3)cc1 | 19.2 | – | – | – | – | – | – | –
O=S1(=O)Nc2c(-c3ccc(Cl)cc3)nn(-c3ccc(F)cc3)c2-c2ccccc21 | 15.5 | – | – | – | – | – | – | –
Fc1ccc([C@@H]2CCNC[C@H]2COc2ccc3c(c2)OCO3)cc1 [PAROXETINE] | – | 100 (≈ 304 µM) | > 100 | > 100 | > 100 | Active | inactive | –
COC(=O)[C@H]1[C@H]2C[C@@H]3c4[nH]c5cc(OC)ccc5c4CCN3C[C@H]2C[C@@H](OC(=O)c2cc(OC)c(OC)c(OC)c2)[C@@H]1OC [RESERPINE] | – | > 100 | > 100 | > 100 | > 100 | Active | inactive | –
NS(=O)(=O)c1ccc(-n2nc(-c3ccc(Cl)cc3)c3c2-c2ccccc2S(=O)(=O)N3)cc1 | 29.8 | – | – | – | – | – | – | –
Cc1ccc(-c2cc(C(F)(F)F)nn2-c2ccc(S(N)(=O)=O)cc2)cc1 [CELECOXIB] | 64.5 | – | > 100 | – | > 100 | inactive | inactive | IC50 [8]: > 40 µM; inhibition [9]: Active
O=[N+]([O-])c1ccc(-n2nc(-c3ccc(Cl)cc3)c3c2-c2ccccc2S(=O)(=O)N3)cc1 | 76.9 | 25 (≈ 55.2 µM) | 50 (≈ 110 µM) | 25 (≈ 55.2 µM) | 50 (≈ 110 µM) | Active | inactive | IC50 [8]: 10 µM; inhibition [10]: Active; fold change (FC) [11]: 16; CC50 at 24 h [12]: > 100 µg/mL; fold change (FC) [13]: 8; Activity [14]: Active
